Consider one compound from patent US12521425B2, “Method of liver cancer treatment with safranal-based formulations” (priority 2019, dated 2026).

In assay [1] the test system is HepG2 cells. The experiment in a line: Caspase-3 and 7 activities (Caspase-Glo 3/7). In kind it is cell-based. Conditions: HepG2, 500 and 700 μM, 24 hours. The procedure:
Caspase-3 and 7 activities. HepG2 were seeded at a density of 5000 cells/well in a 96-well plate, and were allowed to attach. After which, cells were treated with 500 and 700 μM of safranal for 24 hours. Caspase-3 and 7 activities were detected using Caspase-Glo® 3/7 Assay kit according to manufacturer instructions (Promega). Luminescent signal was detected using GloMax Discover System (Promega).

Assay [2] relates to HepG2 cells. The assay is described as follows: Cell cycle analysis by flow cytometry. In kind it is cell-based. To be noted: HepG2, 500 μM; for fraction of subG1 cells: DMSO control 0.9%. The method, then:
Cell cycle analysis. HepG2 cells were seeded at density of 3×10^6 cells per flask in complete growth medium and were allowed to attach overnight. After which, cells were treated with 500 μM of safranal for different time intervals (6-48 hours). At the indicated time intervals, cells were collected by incubation with trypsin and washed twice with PBS. Collected cells were fixed in 70% ethanol, treated with RNase and stained with propidium iodide. Cell cycle distribution was analyzed by flow cytometry in a FACS scan (Becton Dickenson, Germany).
Background: In flow cytometry, cells or beads pass a laser one at a time.

Each structure is given as a SMILES string.

`CC1=C(C=O)C(C)(C)CC=C1` [safranal]: the “activity of executioner caspases-3 and -7” value in assay [1] is listed as “increased”. In addition, the cell cycle distribution entry in assay [2] (6 and 12 hours post treatment) is “G2/M phase arrest”; in assay [2] (24 hours), “S-phase arrest”. Besides, the entries for the “fraction of subG1 cells” value in assay [2] (after 24 hours) and in assay [2] (after 48 hours) were 6.3% and 26.2%, respectively.
